From patent US20250041284A1, “TREATMENT OF NEUROLOGICAL DISORDERS” (Praxis Precision Medicines, Inc., priority 2022, published 2025)
Several values for one entry are separate records, joined by “and”; a condition that tells them apart may be missing. Identical values can stand only once.

Experiments:
[1] = target: T1, hNaV1.6 (Homo sapiens, UniProt Q9UQD0); assay: Apparent binding (KON) and unbinding (KOFF) rates inferred from INa inhibition kinetics; type: cell-based
T1 construct: expressed in transfected cells; host or cells: HEK cells
T1 sequence (Q9UQD0 whole entry): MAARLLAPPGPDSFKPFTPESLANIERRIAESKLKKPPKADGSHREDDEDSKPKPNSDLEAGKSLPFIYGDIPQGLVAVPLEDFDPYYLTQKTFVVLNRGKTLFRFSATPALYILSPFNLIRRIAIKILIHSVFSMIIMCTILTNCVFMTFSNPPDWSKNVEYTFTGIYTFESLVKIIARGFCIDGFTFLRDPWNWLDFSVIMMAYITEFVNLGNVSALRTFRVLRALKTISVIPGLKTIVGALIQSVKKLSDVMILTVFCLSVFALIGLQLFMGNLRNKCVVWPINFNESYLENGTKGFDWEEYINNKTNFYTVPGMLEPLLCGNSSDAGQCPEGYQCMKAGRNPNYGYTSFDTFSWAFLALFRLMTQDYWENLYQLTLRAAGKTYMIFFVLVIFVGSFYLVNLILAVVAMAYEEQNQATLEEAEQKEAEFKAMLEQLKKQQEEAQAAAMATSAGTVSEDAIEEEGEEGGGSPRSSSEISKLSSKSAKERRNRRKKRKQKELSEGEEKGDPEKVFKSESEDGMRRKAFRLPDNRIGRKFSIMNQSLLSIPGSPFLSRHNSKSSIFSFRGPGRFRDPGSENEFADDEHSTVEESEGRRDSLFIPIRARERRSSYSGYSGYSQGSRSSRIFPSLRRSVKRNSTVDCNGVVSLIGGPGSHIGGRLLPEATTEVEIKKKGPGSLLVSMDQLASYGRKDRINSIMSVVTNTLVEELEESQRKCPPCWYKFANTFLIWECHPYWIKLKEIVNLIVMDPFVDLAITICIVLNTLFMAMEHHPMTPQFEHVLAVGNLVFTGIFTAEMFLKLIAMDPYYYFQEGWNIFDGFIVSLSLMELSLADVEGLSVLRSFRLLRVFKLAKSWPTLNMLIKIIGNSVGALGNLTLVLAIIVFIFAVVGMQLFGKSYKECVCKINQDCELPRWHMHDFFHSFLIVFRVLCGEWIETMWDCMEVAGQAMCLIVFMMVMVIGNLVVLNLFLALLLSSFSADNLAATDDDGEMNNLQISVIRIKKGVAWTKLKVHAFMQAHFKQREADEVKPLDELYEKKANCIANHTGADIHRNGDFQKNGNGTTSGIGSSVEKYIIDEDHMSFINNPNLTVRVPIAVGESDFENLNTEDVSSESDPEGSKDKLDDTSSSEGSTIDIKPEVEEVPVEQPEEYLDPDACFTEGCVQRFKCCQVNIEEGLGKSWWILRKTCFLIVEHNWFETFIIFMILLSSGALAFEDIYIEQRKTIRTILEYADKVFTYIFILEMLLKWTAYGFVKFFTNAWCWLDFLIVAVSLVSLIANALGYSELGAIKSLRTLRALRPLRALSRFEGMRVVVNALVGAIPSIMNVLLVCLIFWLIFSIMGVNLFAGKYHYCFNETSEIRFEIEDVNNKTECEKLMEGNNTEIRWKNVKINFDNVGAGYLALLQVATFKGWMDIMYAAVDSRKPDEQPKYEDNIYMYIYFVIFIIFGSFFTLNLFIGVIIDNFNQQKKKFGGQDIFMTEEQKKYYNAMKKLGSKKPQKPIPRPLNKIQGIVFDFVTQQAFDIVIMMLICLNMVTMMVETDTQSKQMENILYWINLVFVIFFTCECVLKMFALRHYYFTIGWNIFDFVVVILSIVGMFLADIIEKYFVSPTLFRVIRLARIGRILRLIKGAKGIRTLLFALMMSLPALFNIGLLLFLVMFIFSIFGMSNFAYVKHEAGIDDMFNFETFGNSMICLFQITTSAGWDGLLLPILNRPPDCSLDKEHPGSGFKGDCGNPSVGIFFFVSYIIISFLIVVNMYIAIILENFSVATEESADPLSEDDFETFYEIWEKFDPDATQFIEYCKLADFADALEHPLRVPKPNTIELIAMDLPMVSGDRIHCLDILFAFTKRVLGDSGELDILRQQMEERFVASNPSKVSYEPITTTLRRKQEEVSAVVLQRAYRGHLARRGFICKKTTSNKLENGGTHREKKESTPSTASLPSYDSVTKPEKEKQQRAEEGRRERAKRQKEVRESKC

[2] = Phase 1 clinical trial, single ascending dose (Part A), healthy volunteers; type: in vivo, human; details: healthy participants, single oral doses up to 45 mg
Text: This is a trial to assess the safety, tolerability, pharmacokinetics (PK), and pharmacodynamics (PD) of Compound 1 in healthy participants aged 18 to 55 years (inclusive). The trial is initially comprised of 2 parts, with 1 additional optional part, as follows: • Part A is randomized, double-blinded, and placebo-controlled. Part A is designed to investigate the safety, PK, and PD of single ascending doses of Compound 1. • Part B is randomized, double-blinded, and placebo-controlled. Part B is designed to investigate the safety, PK, and PD of multiple ascending doses (selected based on the results from Part A) of Compound 1. • Part C (optional) is a randomized, open-label, crossover design food effect evaluation to investigate the PK of a single dose (selected based on the results from Part A) of Compound 1 in the fasted and fed state.
Safety and tolerability assessments for Parts A, B, and C will include vital signs, 12-lead ECGs, physical examinations, clinical laboratory tests, and the C-SSRS (for Part B).
Healthy participants will be enrolled to receive single ascending oral doses of Compound 1 or placebo on Day 1. FIG. 14A is an illustration of the dosing scheme for Part A (single ascending dose) of the trial. Dose escalation in Part A will initially be conducted in up to a total of 4 planned cohorts (Cohorts A1 to A4). Following completion of Cohort A4, up to an additional 3 escalation cohorts may be added. […] Doses may be adjusted upward or downward based on safety, tolerability, and PK data from the preceding cohorts. Cohorts after A4 will be numbered sequentially (A5, A6, etc.). […]
Compound 1 will be administered to Cohort A1 participants at the starting dose of 5 mg. […] The safety and tolerability of each sentinel participant will be monitored until Day 2 and will be reviewed prior to dosing the remainder of participants in the cohort. […]
Cohorts will be dosed in an escalating order. […] If the current dose level is determined to be safe and tolerated by the SRC, the next dose cohort will be randomized to receive the selected dose of active Compound 1 or placebo. […]

[3] = target: T2, human NaV1.6 (Homo sapiens, UniProt Q9UQD0); assay: Persistent (late) INa inhibition, ATX-II activated, automated patch clamp in HEK cells; type: cell-based
T2 construct: HEK-293 cell lines stably expressing human NaV1.6 (NP_055006) were used; expressed in transfected cells
T2 sequence (Q9UQD0 whole entry): as above

[4] = test system: various NaV isoforms and orthologs; assay: ATX-II induced persistent INa at NaV isoforms and orthologs; type: cell-based; details: in words, FIG. 8C
[5] = recovery from inhibition of hNaV1.6 INa

## CCOC(F)(F)c1nnc2ccc(-c3cnc(OCC(F)(F)F)c(F)c3)cn12 [Compound 1]
[1]; development of inhibition of hNaV1.6 INa
  apparent KON: 4.2e+06 M⁻¹ s⁻¹ and 4.168e+06 M⁻¹ s⁻¹
[1]; development of inhibition of hNaV1.6 INa, read-out: apparent KON
  kon: 4.2e+06 M⁻¹ s⁻¹
[1]; fold faster
  KON versus carbamazepine: > 1,500 ×
[1]; fold slower unbinding
  KOFF slower than carbamazepine: 33 ×
[1]; [5]
  apparent KOFF: 1.7 s⁻¹ and 1.72 s⁻¹
  koff: 1.7 s⁻¹
[2]
  most frequently reported TEAEs: headache and fatigue
  safety and tolerability: safe and generally well tolerated
  severity of treatment-emergent adverse events (TEAEs): mild in severity
[3]; fold more potent
  Persistent INa potency relative to the other tested INa blocking agents: at least 550 ×
[3]; hNaV1.6 in HEK cells, ATX-II
  Persistent INa Hill slope: (1.4)
[3]; hNaV1.6 in HEK cells, ATX-II, Vm -120 mV, 200 ms
  IC50: 128 nM
[3]; in words, FIGS. 1A-1D
  preference for persistent INa relative to peak INa: demonstrated preference for persistent INa relative to peak INa for all assay conditions
[4]
  inhibition of ATX-II induced persistent INa at multiple NaV isoforms and orthologs: inhibits ATX-II induced persistent INa expressed by multiple NaV isoforms and orthologs
